Laboratory results as given in US11439618B2, “Compositions and methods for lowering triglycerides” (Amarin Pharmaceuticals Ireland Limited, priority 2009, dated 2022).

Key:
[1] = tested on: subjects with Age-Associated Memory Impairment; assay: CDR computerized cognitive test battery, 6-week study in Age-Associated Memory Impairment; assay type: in vivo, human; settings: for Quality of Episodic Secondary Memory, LS mean difference vs placebo: overall; for Self-Rated Contentment, ANCOVA: p<0.001
Description: A single-center, 6-week, double-blind, randomizes, parallel-group, placebo-controlled, dose-ranging pilot study was performed to evaluate the efficacy, tolerability, and safety of >96% ethyl-EPA in subjects with subjective and objective memory impairment according to generally accepted criteria for Age-Associated Memory Impairment (“AAMI”). The primary objective of the study was to determine the effect of >96% ethyl-EPA 1 g, 2 g, and 4 g daily, compared to placebo, on cognitive performance in subjects with AAMI.
The population for this study was men and women between ages 50 and 70 with self-reported complaints of memory loss, subjective and objective cognitive impairment with a score of at least one standard deviation below that of the mean for age-matched elderly population as determined by the total score of between 13 and 20 from the Paired Associated Learning (“PAL”) subset of the Wechsler Memory Scale, evidence of adequate intellectual function as determined by a scaled score of at least 9 (raw score of at least 32) on the Vocabulary subtest of the Wechsler Adult Intelligence Scale and absence of dementia as determined by a score of 24 or higher on the Mini-Mental State Examination (“MMSE”).
Ninety-four subjects were randomized into one of six groups: 1 g E-EPA daily (n=23), 2 g E-EPA daily (n=24), 4 g E-EPA daily (n=24), 1 g placebo daily (n=7), 2 g placebo daily (n=8), and 4 g placebo daily (n=8). E-EPA was provided as 500 mg soft gel capsules containing >96% E-EPA and 0.2% dl-α-tocopherol as an antioxidant. Placebo capsules contained 467 mg of liquid paraffin and 0.2% dl-a-tocopherol. Ninety-one subjects completed the study. Two subjects in the 2 g E-EPA group and one subject in the 2 g placebo group discontinued the study.
The study consisted of a screening visit, a training visit, and four study visits. At the screening visit, subjects' eligibility was determined through cognitive tests (verbal paired associated learning [PAL] subscale, vocabulary subtest, Memory Assessment Clinics Questionnaire [MAC-Q], mini mental state evaluation [MMSE] and MINI [mini international neuropsychiatric interview; sections 1 and 2 of Diagnostic and Statistical Manual of Mental Disorders, 4th Edition (DSM-IV) plus dysthymia]), haematology, clinical chemistry and 12-lead electrocardiogram (ECG). At the training visit, subjects were shown how to use the CDR computerized system. Subjects took study drug for 6 weeks and on Days 0, 14, 28 and 42, subjects underwent the CDR cognitive test battery.
A selection of tasks from the CDR computerized cognitive assessment system were administered at Visit 2 (training visit), Visit 3 (baseline), Visit 4 (Day 14), Visit 5 (Day 28) and Visit 6 (Day 42). Parallel forms of the tests were presented at each testing session. All tasks were computer-controlled, the information presented on high resolution monitors, and the responses recorded via a response model containing two buttons: one marked ‘no’ and the other ‘yes’. Five CDR composite scores were used as the primary/secondary outcome variables. The task titles were: • Word Presentation • Immediate Word Recall • Picture Presentation • Simple Reaction Time • Digit Vigilance • Choice Reaction Time • Spatial Working Memory • Numeric Working Memory • Delayed Word Recall • Word Recognition • Picture Recognition • Bond-Lader Visual Analogue Scales of Mood and Alertness • Screen, Using the Computer Mouse
Summary statistics were provided for the ITT and Study Per Protocol Populations separately for all composite scores, major and supportive variables. Summary statistics were performed for both the unadjusted and difference from baseline data (i.e. the difference from the time matched predose assessments on Day 0). Summary statistics were calculated by treatment, day and time-point. The summary statistics comprised n, mean, median, SD, standard error of mean (“SEM”), minimum and maximum values. […]

[2] = previous data; standard deviation of 15%; cited from earlier work

CC/C=C\C/C=C\C/C=C\C/C=C\C/C=C\CCCC(=O)OCC [Ethyl-EPA, all-cis eicosa-5,8,11,14,17-pentaenoic acid ethyl ester]
Continuity of Attention and Digit Vigilance Targets Detected, effect of treatment ([1]; ITT): no statistically significant effect of treatment
Immediate and Delayed Word Recall Accuracies, Word and Picture Recognition Sensitivity Indices, effect of treatment ([1]; ITT): no statistically significant effects of treatment
Quality of Episodic Secondary Memory, effect of treatment ([1]; ITT): no statistically significant effect of treatment
Self-Rated Alertness, effect of treatment ([1]; ITT): no statistically significant effect of treatment
Self-Rated Calmness, effect of treatment ([1]; ITT): no statistically significant effect of treatment
Self-Rated Contentment, LS mean difference to placebo ([1]; ITT): no statistically significant effects
Simple Reaction Time and Digit Vigilance Speed, effect of treatment ([1]; ITT): no statistically significant effects of treatment
Speed of Memory and subtasks Spatial and Numeric Working Memory Speeds, Word and Picture Recognition Speeds, effect of treatment ([1]; ITT): no statistically significant effects of treatment
Power of Attention, effect of treatment ([1]; ITT, 1, 2, 4 g daily vs placebo, ANCOVA): no statistically significant effect of treatment
Immediate Word Recall Accuracy, LS mean difference vs placebo ([1]; ITT, 1 g, Day 14, p=0.028): statistically significant decreases
Picture Recognition Speed, difference vs placebo ([1]; ITT, 1 g, Day 14 at AM 2, p=0.084): trends for benefits
Immediate Word Recall Accuracy, LS mean difference vs placebo ([1]; ITT, 1 g, Day 14 at PM 2, p=0.020): statistically significant decreases
Word Recognition Sensitivity Index, LS mean difference vs placebo ([1]; ITT, 1 g, Day 28, p=0.024): statistically significant decreases
Picture Recognition Speed, difference vs placebo ([1]; ITT, 1 g, Day 28 at AM 1, p=0.085): trends for benefits
Picture Recognition Sensitivity Index, LS mean difference vs placebo ([1]; ITT, 1 g, Day 28 at AM 2, p=0.017): statistically significant decrease
Picture Recognition Sensitivity Index, LS mean difference vs placebo ([1]; ITT, 1 g, Day 28 at PM 2, p=0.040): statistically significant decrease
Immediate Word Recall Accuracy, LS mean difference vs placebo ([1]; ITT, 1 g, at AM 1, p=0.040): statistically significant decreases
Quality of Episodic Secondary Memory, LS mean difference vs placebo ([1]; ITT, 1 g, p=0.040): statistically significant decreases
Immediate Word Recall Accuracy, LS mean difference vs placebo ([1]; ITT, 2 g, Day 28, p=0.017): statistically significant decreases
Self-Rated Alertness, LS mean difference vs placebo ([1]; ITT, 2 g, Day 28, p=0.047): statistically significant decrease in ratings
Immediate Word Recall Accuracy, LS mean difference vs placebo ([1]; ITT, 2 g, Day 28 at AM 1, p=0.006): statistically significant decreases
Self-Rated Alertness, LS mean difference vs placebo ([1]; ITT, 2 g, Day 28 at AM 2, p=0.041): statistically significant decrease in ratings
Immediate Word Recall Accuracy, LS mean difference vs placebo ([1]; ITT, 2 g, at AM 1, p=0.028): statistically significant decreases
Quality of Episodic Secondary Memory, LS mean difference vs placebo ([1]; ITT, 2 g, p=0.035): statistically significant decreases
Spatial Working Memory Speed, LS mean difference vs placebo ([1]; ITT, 4 g, Day 14 at PM 1, p=0.048): statistically significant benefit
Word Recognition Sensitivity Index, LS mean difference vs placebo ([1]; ITT, 4 g, Day 28 at PM 2, p=0.030): statistically significant decrease
Word Recognition Sensitivity Index, LS mean difference vs placebo ([1]; ITT, 4 g, Day 42, p=0.038): statistically significant decreases
Spatial Working Memory Speed, LS mean difference vs placebo ([1]; ITT, 4 g, Day 42 at AM 1, p=0.061): trend for a benefit
Word Recognition Sensitivity Index, LS mean difference vs placebo ([1]; ITT, 4 g, at PM 2, p=0.045): statistically significant decrease
Power of Attention, LS mean difference active treatment vs placebo ([1]; ITT, any time-point): no LS mean difference
Self-Rated Contentment, ANCOVA ([1]; ITT): statistically significant treatment by day interaction
Choice Reaction Time, ANCOVA ([1]; ITT, p=0.011): statistically significant treatment by day interaction
Spatial Working Memory Sensitivity Index, ANCOVA ([1]; ITT, p=0.015): statistically significant treatment by day interaction
Quality of Working Memory, ANCOVA ([1]; ITT, p=0.019): statistically significant treatment by day interaction
Numeric Working Memory Sensitivity Index, ANCOVA ([1]; ITT, p=0.089): statistical trend for a treatment by day interaction
Continuity of Attention, effect of treatment ([1]; Study Per Protocol): no statistically significant effect of treatment
Digit Vigilance Targets Detected, ANCOVA ([1]; Study Per Protocol, p=0.040): statistically significant treatment by time-point interaction
Immediate and Delayed Word Recall Accuracies, Word and Picture Recognition Sensitivity Indices, effect of treatment ([1]; Study Per-Protocol): no statistically significant effects of treatment
Power of Attention, effect of treatment ([1]; Study Per-Protocol): no statistically significant effect of treatment
Quality of Episodic Secondary Memory, effect of treatment ([1]; Study Per-Protocol): no statistically significant effects of treatment
Self-Rated Alertness, effect of treatment ([1]; Study Per-Protocol): no statistically significant effect of treatment
Self-Rated Calmness, effect of treatment ([1]; Study Per-Protocol): no statistically significant effect of treatment
Self-Rated Contentment, LS mean difference to placebo ([1]; Study Per-Protocol): no statistically significant effects
Simple Reaction Time and Digit Vigilance Speed, effect of treatment ([1]; Study Per-Protocol): no statistically significant effects of treatment
Speed of Memory and subtasks Spatial and Numeric Working Memory Speed, Word and Picture Recognition Speed, effect of treatment ([1]; Study Per-Protocol): no statistical significant effects of treatment
Immediate Word Recall Accuracy, LS mean difference to placebo ([1]; Study Per-Protocol, 1 g, Day 14, p=0.024): statistically significant decreases
Immediate Word Recall Accuracy, LS mean difference to placebo ([1]; Study Per-Protocol, 1 g, Day 14 at PM 2, p=0.019): statistically significant decreases
Word Recognition Sensitivity Index, LS mean difference to placebo ([1]; Study Per-Protocol, 1 g, Day 28, p=0.027): statistically significant decreases
Picture Recognition Sensitivity Index, LS mean difference vs placebo ([1]; Study Per-Protocol, 1 g, Day 28 at AM 2, p=0.020): statistically significant decreases
Picture Recognition Sensitivity Index, LS mean difference vs placebo ([1]; Study Per-Protocol, 1 g, Day 28 at PM 2, p=0.026): statistically significant decreases
Immediate Word Recall Accuracy, LS mean difference to placebo ([1]; Study Per-Protocol, 1 g, at AM 1, p=0.038): statistically significant decreases
Immediate Word Recall Accuracy, LS mean difference to placebo ([1]; Study Per-Protocol, 1 g, at AM 2, p=0.048): statistically significant decreases
Quality of Episodic Secondary Memory, LS mean difference vs placebo ([1]; Study Per-Protocol, 1 g, p=0.043): statistically significant decreases
Immediate Word Recall Accuracy, LS mean difference to placebo ([1]; Study Per-Protocol, 2 g, Day 28, p=0.017): statistically significant decreases
Self-Rated Alertness, LS mean difference vs placebo ([1]; Study Per-Protocol, 2 g, Day 28, p=0.035): statistically significant decrease in ratings
Immediate Word Recall Accuracy, LS mean difference to placebo ([1]; Study Per-Protocol, 2 g, Day 28 at AM 1, p=0.006): statistically significant decreases
Self-Rated Alertness, LS mean difference vs placebo ([1]; Study Per-Protocol, 2 g, Day 28 at AM 2, p=0.033): statistically significant decrease in ratings
Immediate Word Recall Accuracy, LS mean difference to placebo ([1]; Study Per-Protocol, 2 g, at AM 1, p=0.029): statistically significant decreases
Quality of Episodic Secondary Memory, LS mean difference vs placebo ([1]; Study Per-Protocol, 2 g, p=0.036): statistically significant decreases
Word Recognition Sensitivity Index, LS mean difference to placebo ([1]; Study Per-Protocol, 4 g, Day 42, p=0.038): statistically significant decreases
Self-Rated Calmness, LS mean difference vs placebo ([1]; Study Per-Protocol, 4 g, Day 42 at PM 1, p=0.071): statistical trend for an increase in ratings
Power of Attention, difference active treatment vs placebo ([1]; Study Per-Protocol, any time-point): no difference between active treatment and placebo
Self-Rated Contentment, ANCOVA ([1]; Study Per-Protocol): statistically significant treatment by day interaction
Choice Reaction Time, ANCOVA ([1]; Study Per-Protocol, p=0.013): statistically significant treatment by day interaction
Spatial Working Memory Sensitivity Index, ANCOVA ([1]; Study Per-Protocol, p=0.014): statistically significant treatment by day interaction
Quality of Working Memory, ANCOVA ([1]; Study Per-Protocol, p=0.021): statistically significant treatment by day interaction
Continuity of Attention, post-hoc vs corresponding placebo ([1]; post-hoc): no general pattern of effects
Quality of Working Memory and Numeric Working Memory Sensitivity Index, post-hoc vs corresponding placebo ([1]; post-hoc): only isolated improvements and declines in performance
Self-Rated Calmness, post-hoc vs corresponding placebo ([1]; post-hoc): no differences between active treatment and placebo
Self-rated Alertness and Self-rated Contentment, post-hoc vs corresponding placebo ([1]; post-hoc, 1 g, Days 14 and 28): decreases in ratings
Choice Reaction Time, post-hoc vs corresponding placebo ([1]; post-hoc, 4 g, Day 42): superior to placebo at every time point
Power of Attention, post-hoc vs corresponding placebo ([1]; post-hoc, 4 g, Day 42): overall benefit versus the corresponding placebo
Spatial Working Memory Sensitivity Index, post-hoc vs corresponding placebo ([1]; post-hoc, 4 g, Day 42, Study PP Population): overall benefit
Simple Reaction Time, post-hoc vs corresponding placebo ([1]; post-hoc, 4 g, PM 2 collapsed across days, several time-points Days 14 and 42): improvements in performance
Choice Reaction Time, post-hoc vs corresponding placebo ([1]; post-hoc, 4 g, all study days): overall benefit versus corresponding placebo
Quality of Episodic Secondary Memory and contributing subtasks, post-hoc vs corresponding placebo ([1]; post-hoc, explained by pre-existing group differences): a number of decreases
Speed of Memory subtask measures, post-hoc vs corresponding placebo ([1]; post-hoc, mostly 1 g): some signs of improvement in performance
Difference in percent change from baseline in fasting LDL-C between study drug and placebo [2]: 2.2%
